Experiment [1] concerns the target T1, EP4 (Mus musculus, UniProt P32240).
T1 construct: expressed in transfected cells; host or cells: CHO cells (membrane fraction)
In words: Binding assay using cell expressing the prostanoid receptor subtypes ([3H]-PGE2 competition, CHO membrane fraction). To be noted: membrane fraction of CHO cell expressing mouse EP4, Ki=IC50/(1+([C]/Kd)). The method, then: (i) Binding Assay Using Cell Expressing The Prostanoid Receptor Subtypes
The preparation of membrane fraction was carried out according to the method of Sugimoto et al [J. Biol. Chem. 267, 6463–6466 (1992)], using CHO cell expressing prostanoid receptor subtype (mouse EP1, EP2, EP3, EP4 and human IP).
The standard assay mixture containing membrane fraction (0.5 mg/mL), [^3H]-PGE2 in a final volume of 200 μl was incubated for 1 hour at room temperature. The reaction was terminated by addition of 3 mL of ice-cold buffer. The mixture was rapidly filtered through a glass filter (GF/B) under reduced pressure. The radioactivity associated with the filter was measured by liquid scintillation counter.
Kd and Bmax values were determined from Scatchard plots [Ann. N.Y. Acad. Sci. 51, 660(1949)]. Non-specific binding was calculated as the amount bound in the presence of an excess (2.5 μM) of unlabeled PGE2. In the experiment for competition of specific [^3H]-PGE2 binding by the compounds of the present invention, [^3H]-PGE2 was added at a concentration of […] and the compound of the present invention was added at various concentrations. The following buffer was used in all reactions. • Buffer: 10 mM potassium phosphate (pH 6.0), 1 mM EDTA, 10 mM MgCl2, 0.1 M NaCl. • The dissociation constant (Ki) (μM) of each compound was calculated by the following equation. Ki=IC50/(1+([C]/Kd))

Experiment [2] deals with T1, EP4. The experiment in a line: EP4 antagonizing activity assay using the cell expressing the prostanoid receptor subtypes (cAMP production in CHO cells). The class given is cell-based. As to conditions: inhibition of cAMP production with 100 nM PGE2 as agonist; CHO cell expressing receptor subtype. The method, then: (ii) EP4 Antagonizing Activity Assay Using the Cell Expressing the Prostanoid Receptor Subtypes
The preparation of CHO cell expressing prostanoid receptor subtype was carried out according to the method of Nishigaki et al [FEBS lett., 364, 339–341(1995)]. The cells were cultured in 24-well microplates (10^5 cells/well) for two days before experiments. After washing each well with 500 μL of MEM (minimum essential medium), thereto was added 450 μL of assay medium (MEM containing 1 mmol/L IBMX, 1% BSA), and the mixture was incubated for 10 minutes at 37° C. Then PGE2 alone or a combination with a test compound (50 μL) were added, and the mixture was incubated for 10 minutes at 37° C. And reaction was terminated by addition of ice-cold TCA (10% W/V, 500 μL). This reaction mixture was freezed once (−80° C.) and thawed, and cells were harvested using a scraper. After centrifugation (13,000 r.p.m., for 3 minutes), cAMP content was measured using cAMP assay kit. That is, the supernatant (125 μL) was diluted with 500 μL of [^125I]-cAMP assay kit buffer (Amersham), and mixed with 0.5 mol/L tri-n-octylamine/chloroform solution (1 mL) was mixed. After removal of TCA from chloroform layer, cAMP content in the aqueous layer was quantified according to the method of kit manuals. […]

By Ki is commonly meant a measure of affinity in units of concentration, obtained from inhibition or displacement. One may read the IC50 as the concentration that inhibits the measured activity by half.

Molecules are shown by their SMILES. Where a name gives a salt, the structure may show the parent alone.

T1 sequence (P32240 whole entry): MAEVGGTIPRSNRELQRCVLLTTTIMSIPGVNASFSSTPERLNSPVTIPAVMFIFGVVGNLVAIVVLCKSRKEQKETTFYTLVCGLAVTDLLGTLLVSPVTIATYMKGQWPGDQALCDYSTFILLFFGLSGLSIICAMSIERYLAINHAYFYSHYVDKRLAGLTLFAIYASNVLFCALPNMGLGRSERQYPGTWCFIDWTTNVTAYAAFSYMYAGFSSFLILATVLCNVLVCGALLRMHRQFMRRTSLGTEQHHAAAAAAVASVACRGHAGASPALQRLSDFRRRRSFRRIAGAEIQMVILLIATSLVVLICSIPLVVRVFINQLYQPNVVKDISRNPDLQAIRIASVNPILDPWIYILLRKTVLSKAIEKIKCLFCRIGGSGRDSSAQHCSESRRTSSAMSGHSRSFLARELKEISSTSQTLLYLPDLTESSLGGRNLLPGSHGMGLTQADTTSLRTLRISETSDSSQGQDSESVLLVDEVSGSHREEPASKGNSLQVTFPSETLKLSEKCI

In the case of `CC(C(=O)Nc1ccccc1Cc1ccccc1C(=O)O)c1cccc2ccccc12` (stereo not shown) [Example 2(1), 2-[2-[2-(1-naphthyl)propanoylamino]phenylmethyl]benzoic acid], the Ki on EP4 [1] is 2.7 nM. Besides, on EP4 [2], the IC50 is 10 nM.

In turn, `CC(C(=O)Nc1ccccc1Cc1ccccc1C(=O)O)c1ccc(OCc2ccccc2)cc1` (stereo not shown) [Example 4(1), 2-[2-[2-(4-benzyloxyphenyl)propanoylamino]phenylmethyl]benzoic acid] displayed a Ki at EP4 [1] of 10.5 nM.

The compound `CC(C(=O)Nc1ccncc1Cc1ccccc1C(=O)O)c1cccc2ccccc12` (stereo not shown) [Example 2(15), 2-[4-[2-(1-naphthyl)propanoylamino]pyridin-3-ylmethyl]benzoic acid monohydrochloride] showed a Ki on EP4 [1] of 6.5 nM.

For the origin of these results see patent publication US7196198B2, “Benzoic acid derivatives, processes for the preparation thereof and pharmaceutical agents comprising the same as active ingredient” (Ono Pharmaceutical Co., Ltd., priority 2000, dated 2007).
